The text below walks through data of PubChem BioAssay AID256 (DTP/NCI, 2004).

Values joined by “and” are separate entries in the source; they are usually repeats but may differ in a detail not shown here. Identical values can stand only once. Toxic doses and inconclusive results are not listed.

The subject of the test is CD2F1 mice, L1210 leukemia ip, survival T/C. In words: NCI In Vivo Anticancer Drug Screen. Data for tumor model L1210 Leukemia (intraperitoneal) in CD2F1 (CDF1) mice. To be noted: higher = longer survival. The method, boiled down:
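Tumor-bearing mice (transplanted tumor) were split into treated and vehicle control groups, and the measured endpoint of each treated group was divided by that of its vehicle controls.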

[1] abbreviates: endpoint: mean survival time, dose: 25.0 mg/kg/injection, schedule: Q01DX009 (ip), vehicle: Klucel (hydroxypropylcellulose) (HPC).
The mark [2] stands for this setting: endpoint: mean survival time, dose: 50.0 mg/kg/injection, schedule: Q01DX009 (ip), vehicle: Klucel (hydroxypropylcellulose) (HPC).
[3] abbreviates: endpoint: mean survival time, dose: 100.0 mg/kg/injection, schedule: Q01DX009 (ip), vehicle: Klucel (hydroxypropylcellulose) (HPC).
[4] abbreviates: endpoint: mean survival time, dose: 100.0 mg/kg/injection, schedule: Q04DX003 (ip), vehicle: saline with Tween-80.
The mark [5] stands for this setting: endpoint: mean survival time, dose: 200.0 mg/kg/injection, schedule: Q04DX003 (ip), vehicle: saline with Tween-80.
The mark [6] stands for this setting: endpoint: mean survival time, dose: 400.0 mg/kg/injection, schedule: Q04DX003 (ip), vehicle: saline with Tween-80.
The mark [7] stands for this setting: endpoint: mean survival time, dose: 6.25 mg/kg/injection, schedule: Q01DX009 (ip), vehicle: saline.
Setting [8] is: endpoint: mean survival time, dose: 12.5 mg/kg/injection, schedule: Q01DX009 (ip), vehicle: saline.

Take `O=C1C(Cl)=C(Nc2cccc(Cl)c2)C(=O)c2ccccc21`: the T/C is, setting by setting: (endpoint: mean survival time, dose: 100.0 mg/kg/injection, schedule: Q04DX002 (ip), vehicle: other) 90 % of control; (endpoint: mean survival time, dose: 200.0 mg/kg/injection, schedule: Q04DX002 (ip), vehicle: other) 94 % of control; (endpoint: mean survival time, dose: 400.0 mg/kg/injection, schedule: Q04DX002 (ip), vehicle: other) 105 % of control.
`COC(=O)/C(=N\NS(=O)(=O)c1ccc(C)cc1)c1ccccc1`: the T/C was 100 % of control under setting [1]; 102 % of control under setting [2]; 102 % of control under setting [3]; 91 % of control (endpoint: mean survival time, dose: 200.0 mg/kg/injection, schedule: Q01DX009 (ip), vehicle: Klucel (hydroxypropylcellulose) (HPC)); 91 % of control (endpoint: mean survival time, dose: 400.0 mg/kg/injection, schedule: Q01DX009 (ip), vehicle: Klucel (hydroxypropylcellulose) (HPC)).
Turning to `N#CCc1c(Cl)c(Cl)c(Cl)c(Cl)c1Cl`, the T/C reads like this: under setting [4], 103 % of control; under setting [5], 103 % of control; under setting [6], 102 % of control.
In the case of `CCOC(=O)/C=C/C(=O)[O-].CCOC(=O)/C=C/C(=O)[O-].NC1CCCCC1N.[Pt+4]`, the T/C reads like this: (endpoint: median survival time, dose: 3.12 mg/kg/injection, schedule: Q04DX003 (ip), vehicle: saline with Tween-80) 101 % of control and 103 % of control; (endpoint: median survival time, dose: 6.25 mg/kg/injection, schedule: Q04DX003 (ip), vehicle: saline with Tween-80) 103 % of control and 108 % of control; (endpoint: median survival time, dose: 12.5 mg/kg/injection, schedule: Q04DX003 (ip), vehicle: saline with Tween-80) 113 % of control and 112 % of control; (endpoint: median survival time, dose: 25.0 mg/kg/injection, schedule: Q04DX003 (ip), vehicle: saline with Tween-80) 123 % of control; (endpoint: median survival time, dose: 100.0 mg/kg/injection, schedule: Q04DX003 (ip), vehicle: saline with Tween-80) 164 % of control; (endpoint: median survival time, dose: 200.0 mg/kg/injection, schedule: Q04DX003 (ip), vehicle: saline with Tween-80) 166 % of control and 333 % of control.
As for `O=C1C=CC(=O)C1=Cc1ccc(O)cc1`, the T/C is, setting by setting: (endpoint: mean survival time, dose: 5.0 mg/kg/injection, schedule: Q04DX002 (ip), vehicle: saline with Tween-80) 100 % of control; (endpoint: mean survival time, dose: 10.0 mg/kg/injection, schedule: Q04DX002 (ip), vehicle: saline with Tween-80) 103 % of control.
As to `Nc1nc2c(ncn2-c2cccc(NC(=O)CBr)c2)c(=O)[nH]1`, the T/C is, setting by setting: (endpoint: mean survival time, dose: 37.5 mg/kg/injection, schedule: Q01DX001 (ip), vehicle: saline with Tween-80) 95 % of control; (endpoint: mean survival time, dose: 75.0 mg/kg/injection, schedule: Q01DX001 (ip), vehicle: saline with Tween-80) 100 % of control; (endpoint: mean survival time, dose: 150.0 mg/kg/injection, schedule: Q01DX001 (ip), vehicle: saline with Tween-80) 92 % of control.
In the case of `COc1ccc(C2OC(=O)c3cccnc32)cc1OC` (centres undefined), the T/C is 90 % of control (endpoint: mean survival time, dose: 12.5 mg/kg/injection, schedule: Q01DX009 (ip), vehicle: other); 87 % of control (endpoint: mean survival time, dose: 50.0 mg/kg/injection, schedule: Q01DX009 (ip), vehicle: other); 88 % of control (endpoint: mean survival time, dose: 200.0 mg/kg/injection, schedule: Q01DX009 (ip), vehicle: other).
For `CC(=O)OC1CCC2(C)C(CCC3C2CCC2(C)C3CC3OC4(CCC(C)CO4)C(C)C32)C1` (centres undefined), the T/C runs as follows: under setting [4], 95 % of control and 92 % of control; under setting [5], 89 % of control and 90 % of control and 95 % of control; under setting [6], 87 % of control and 90 % of control.
For `Cc1c(Cl)ccc(Cl)c1Cl`, the T/C (endpoint: mean survival time, dose: 100.0 mg/kg/injection, schedule: Q01DX009 (ip), vehicle: saline sonified) was 105 % of control; the T/C (endpoint: mean survival time, dose: 100.0 mg/kg/injection, schedule: Q04DX003 (ip), vehicle: saline sonified) is 104 % of control; the T/C (endpoint: mean survival time, dose: 200.0 mg/kg/injection, schedule: Q01DX009 (ip), vehicle: saline sonified) is 100 % of control; the T/C (endpoint: mean survival time, dose: 200.0 mg/kg/injection, schedule: Q04DX003 (ip), vehicle: saline sonified) is 101 % of control; the T/C (endpoint: mean survival time, dose: 400.0 mg/kg/injection, schedule: Q01DX009 (ip), vehicle: saline sonified) is 102 % of control; the T/C (endpoint: mean survival time, dose: 400.0 mg/kg/injection, schedule: Q04DX003 (ip), vehicle: saline sonified) was 106 % of control.
For `OCC1OC(n2cnc3c([Se]Cc4ccccn4)ncnc32)C(O)C1O` (centres undefined), the T/C (endpoint: mean survival time, dose: 3.12 mg/kg/injection, schedule: Q01DX009 (ip), vehicle: saline) is 102 % of control; the T/C under setting [7] was 113 % of control; the T/C (endpoint: mean survival time, dose: 12.5 mg/kg/injection, schedule: Q01DX005 (ip), vehicle: saline) was 100 % of control; the T/C under setting [8] was 111 % of control.
For the compound `COc1ccc(Cl)[n+]([O-])n1`, the T/C (endpoint: mean survival time, dose: 3.12 mg/kg/injection, schedule: Q01DX009 (ip), vehicle: Klucel (hydroxypropylcellulose) (HPC)) was 94 % of control and 103 % of control; the T/C (endpoint: mean survival time, dose: 6.25 mg/kg/injection, schedule: Q01DX009 (ip), vehicle: Klucel (hydroxypropylcellulose) (HPC)) was 97 % of control and 101 % of control; the T/C (endpoint: mean survival time, dose: 12.5 mg/kg/injection, schedule: Q01DX009 (ip), vehicle: Klucel (hydroxypropylcellulose) (HPC)) is 96 % of control and 106 % of control; the T/C under setting [1] is 98 % of control and 106 % of control; the T/C under setting [2] was 94 % of control and 101 % of control; the T/C under setting [3] is 101 % of control and 104 % of control.
Turning to `O=C(NNC1CCCCC1)c1ccccc1`, the T/C (endpoint: mean survival time, dose: 100.0 mg/kg/injection, schedule: Q01DX009 (ip), vehicle: acetone) was 103 % of control.
`C=COC(=O)N1CCCCC1`: the T/C reads like this: (endpoint: mean survival time, dose: 75.0 mg/kg/injection, schedule: Q01DX001 (ip), vehicle: saline) 97 % of control; (endpoint: mean survival time, dose: 150.0 mg/kg/injection, schedule: Q01DX001 (ip), vehicle: saline) 98 % of control; (endpoint: mean survival time, dose: 300.0 mg/kg/injection, schedule: Q01DX001 (ip), vehicle: saline) 106 % of control.
On to `CCCCC(C(=O)OCC)C(=O)c1ccccc1` (centres undefined), for which the T/C is 96 % of control under setting [4], 94 % of control under setting [5] and 97 % of control under setting [6].
Consider `CC(C)(C)C#C/C(=N\Nc1ccc([N+](=O)[O-])cc1[N+](=O)[O-])c1ccccc1`, for which the T/C is, setting by setting: (endpoint: mean survival time, dose: 100.0 mg/kg/injection, schedule: Q01DX001 (ip), vehicle: saline with Tween-80) 94 % of control; (endpoint: mean survival time, dose: 200.0 mg/kg/injection, schedule: Q01DX001 (ip), vehicle: saline with Tween-80) 89 % of control; (endpoint: mean survival time, dose: 400.0 mg/kg/injection, schedule: Q01DX001 (ip), vehicle: saline with Tween-80) 86 % of control.
For `Oc1ccc(/C=N\N=C\c2ccc(O)cc2)cc1`, the T/C (endpoint: mean survival time, dose: 100.0 mg/kg/injection, schedule: Q01DX009 (ip), vehicle: saline with Tween-80) was 86 % of control; the T/C under setting [4] was 96 % of control; the T/C (endpoint: mean survival time, dose: 200.0 mg/kg/injection, schedule: Q01DX009 (ip), vehicle: saline with Tween-80) is 86 % of control; the T/C under setting [5] was 89 % of control; the T/C (endpoint: mean survival time, dose: 400.0 mg/kg/injection, schedule: Q01DX009 (ip), vehicle: saline with Tween-80) was 91 % of control; the T/C under setting [6] is 96 % of control.
As to `CCCCCCCS(=O)CCCl` (centres undefined), the T/C is 96 % of control (endpoint: mean survival time, dose: 100.0 mg/kg/injection, schedule: Q04DX002 (ip), vehicle: saline with Tween-80) and 108 % of control (endpoint: mean survival time, dose: 200.0 mg/kg/injection, schedule: Q04DX002 (ip), vehicle: saline with Tween-80).
On to `CC(=O)C1(O)Cc2c(O)c3c(c(O)c2C(OC2CC(N)C(O)C(C)O2)C1)C(=O)c1ccccc1C3=O` (centres undefined), for which the T/C by setting is: (endpoint: mean survival time, dose: 0.03 mg/kg/injection, schedule: Q01DX009 (ip), vehicle: water) 104 % of control; (endpoint: mean survival time, dose: 0.05 mg/kg/injection, schedule: Q01DX009 (ip), vehicle: water) 110 % of control; (endpoint: mean survival time, dose: 0.1 mg/kg/injection, schedule: Q01DX009 (ip), vehicle: water) 117 % of control; (endpoint: mean survival time, dose: 0.4 mg/kg/injection, schedule: Q01DX009 (ip), vehicle: water) 151 % of control; (endpoint: mean survival time, dose: 0.8 mg/kg/injection, schedule: Q01DX009 (ip), vehicle: water) 92 % of control.
As to `CN(C)C(=O)c1cccc(COc2ccc(N3C(N)=NC(N)=NC3(C)C)cc2Cl)c1`, the T/C runs as follows: (endpoint: mean survival time, dose: 0.2 mg/kg/injection, schedule: Q01DX009 (ip), vehicle: saline) 100 % of control; (endpoint: mean survival time, dose: 0.4 mg/kg/injection, schedule: Q01DX009 (ip), vehicle: saline) 98 % of control; (endpoint: mean survival time, dose: 1.56 mg/kg/injection, schedule: Q01DX009 (ip), vehicle: saline) 98 % of control; (endpoint: mean survival time, dose: 3.13 mg/kg/injection, schedule: Q01DX009 (ip), vehicle: saline) 100 % of control; under setting [7], 98 % of control; under setting [8], 98 % of control. The T/C (endpoint: mean survival time, dose: 65.0 mg/kg/injection, schedule: Q01DX009 (ip), vehicle: saline) is 97 % of control.
